# Assay results reported in PubChem BioAssay AID2060335 (Molecular Pharmacology Branch, DTP, NCI, 2025).
# Where “and” joins values, the source holds several entries; their conditions need not be identical. Equal entries are not always repeated.
# System: DU-145 multicell spheroids with HUVEC/MSC, viability
# Assay: Anticancer human tumor DU-145 cell line growth inhibition [IpAb];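 further: spheroids exposed to agents for seven days before measurement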;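 on viability, T/C: percent of DMSO vehicle control viability so 100% = untreated level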
# Details: for viability, T/C: stronger effect = lower value
# In short: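 Spheroids of 60% malignant cells, 25% HUVEC and 15% MSC were exposed to targeted agents combined with ipatasertib or abemaciclib. Doses started at or near clinical Cmax (10 microM when unknown) and fell in half-log steps.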
# [1] = curve of first compound, second compound 0.01 µM
# [2] = curve of first compound, second compound 0.0316 µM
# [3] = curve of first compound, second compound 0.1 µM
# [4] = curve of first compound, second compound 0.316 µM
# [5] = curve of first compound, second compound 1 µM
structure (smiles),measurement,setting,value
CC(=O)c1c(C)c2cnc(Nc3ccc(N4CCNCC4)cn3)nc2n(C2CCCC2)c1=O + CCN1CCN(Cc2ccc(Nc3ncc(F)c(-c4cc(F)c5nc(C)n(C(C)C)c5c4)n3)nc2)CC1,IC50,[1],> 300 nM
same,IC50,[2],> 300 nM
same,IC50,[3],> 300 nM
same,IC50,[4],> 300 nM
same,IC50,[5],> 300 nM
same,"viability, T/C","second compound 0.01 µM, first compound 0.000949 µM",88.5%
same,"viability, T/C","second compound 0.01 µM, first compound 0.003 µM",90.5%
same,"viability, T/C","second compound 0.01 µM, first compound 0.00949 µM",87.2%
same,"viability, T/C","second compound 0.01 µM, first compound 0.03 µM",90.4%
same,"viability, T/C","second compound 0.01 µM, first compound 0.0949 µM",90.2%
same,"viability, T/C","second compound 0.01 µM, first compound 0.3 µM",84.8%
same,"viability, T/C","second compound 0.0316 µM, first compound 0.000949 µM",93.7%
same,"viability, T/C","second compound 0.0316 µM, first compound 0.003 µM",84.9%
same,"viability, T/C","second compound 0.0316 µM, first compound 0.00949 µM",90%
same,"viability, T/C","second compound 0.0316 µM, first compound 0.03 µM",85.4%
same,"viability, T/C","second compound 0.0316 µM, first compound 0.0949 µM",83.4%
same,"viability, T/C","second compound 0.0316 µM, first compound 0.3 µM",80.9%
same,"viability, T/C","second compound 0.1 µM, first compound 0.000949 µM",78.6%
same,"viability, T/C","second compound 0.1 µM, first compound 0.003 µM",76.9%
same,"viability, T/C","second compound 0.1 µM, first compound 0.00949 µM",77.9%
same,"viability, T/C","second compound 0.1 µM, first compound 0.03 µM",76.9%
same,"viability, T/C","second compound 0.1 µM, first compound 0.0949 µM",73.4%
same,"viability, T/C","second compound 0.1 µM, first compound 0.3 µM",76.7%
same,"viability, T/C","second compound 0.316 µM, first compound 0.000949 µM",74.5%
same,"viability, T/C","second compound 0.316 µM, first compound 0.003 µM",72%
same,"viability, T/C","second compound 0.316 µM, first compound 0.00949 µM",75.5%
same,"viability, T/C","second compound 0.316 µM, first compound 0.03 µM",75%
same,"viability, T/C","second compound 0.316 µM, first compound 0.0949 µM",71.3%
same,"viability, T/C","second compound 0.316 µM, first compound 0.3 µM",66.6%
same,"viability, T/C","second compound 1 µM, first compound 0.000949 µM",58.9%
same,"viability, T/C","second compound 1 µM, first compound 0.003 µM",61.2%
same,"viability, T/C","second compound 1 µM, first compound 0.00949 µM",61.6%
same,"viability, T/C","second compound 1 µM, first compound 0.03 µM",60.4%
same,"viability, T/C","second compound 1 µM, first compound 0.0949 µM",58%
same,"viability, T/C","second compound 1 µM, first compound 0.3 µM",60.2%
Cc1nc(NC(=O)N2CCCC2C(N)=O)sc1-c1ccnc(C(C)(C)C(F)(F)F)c1 (stereo not drawn),"viability, T/C",compound 0.0316 µM,81% and 75.7%
same,"viability, T/C",compound 0.1 µM,60.6% and 54.3%
same,"viability, T/C",compound 0.316 µM,39.9% and 37.3%
same,"viability, T/C",compound 1 µM,29% and 31.4%
same,"viability, T/C",compound 3.16 µM,21.7% and 20.9%
same,"viability, T/C",compound 10 µM,8.51% and 8.2%
same,IC50,curve of compound,192 nM and 160 nM
CCCS(=O)(=O)Nc1ccc(F)c(C(=O)c2c[nH]c3ncc(-c4ccc(Cl)cc4)cc23)c1F + CCN1CCN(Cc2ccc(Nc3ncc(F)c(-c4cc(F)c5nc(C)n(C(C)C)c5c4)n3)nc2)CC1,IC50,[1],> 10000 nM
same,IC50,[2],> 10000 nM
same,IC50,[3],> 10000 nM
same,IC50,[4],> 10000 nM
same,IC50,[5],> 10000 nM
same,"viability, T/C","second compound 0.01 µM, first compound 0.0316 µM",107%
same,"viability, T/C","second compound 0.01 µM, first compound 0.1 µM",107%
same,"viability, T/C","second compound 0.01 µM, first compound 0.316 µM",102%
same,"viability, T/C","second compound 0.01 µM, first compound 1 µM",115%
same,"viability, T/C","second compound 0.01 µM, first compound 3.16 µM",106%
same,"viability, T/C","second compound 0.01 µM, first compound 10 µM",79.8%
same,"viability, T/C","second compound 0.0316 µM, first compound 0.0316 µM",101%
same,"viability, T/C","second compound 0.0316 µM, first compound 0.1 µM",107%
same,"viability, T/C","second compound 0.0316 µM, first compound 0.316 µM",105%
same,"viability, T/C","second compound 0.0316 µM, first compound 1 µM",115%
same,"viability, T/C","second compound 0.0316 µM, first compound 3.16 µM",106%
same,"viability, T/C","second compound 0.0316 µM, first compound 10 µM",72.4%
same,"viability, T/C","second compound 0.1 µM, first compound 0.0316 µM",95.8%
same,"viability, T/C","second compound 0.1 µM, first compound 0.1 µM",95.5%
same,"viability, T/C","second compound 0.1 µM, first compound 0.316 µM",99.3%
same,"viability, T/C","second compound 0.1 µM, first compound 1 µM",107%
same,"viability, T/C","second compound 0.1 µM, first compound 3.16 µM",98.3%
same,"viability, T/C","second compound 0.1 µM, first compound 10 µM",65.9%
same,"viability, T/C","second compound 0.316 µM, first compound 0.0316 µM",80.3%
same,"viability, T/C","second compound 0.316 µM, first compound 0.1 µM",84.9%
same,"viability, T/C","second compound 0.316 µM, first compound 0.316 µM",87.1%
same,"viability, T/C","second compound 0.316 µM, first compound 1 µM",88.6%
same,"viability, T/C","second compound 0.316 µM, first compound 3.16 µM",89.4%
same,"viability, T/C","second compound 0.316 µM, first compound 10 µM",52.4%
same,"viability, T/C","second compound 1 µM, first compound 0.0316 µM",70.1%
same,"viability, T/C","second compound 1 µM, first compound 0.1 µM",66.9%
same,"viability, T/C","second compound 1 µM, first compound 0.316 µM",67%
same,"viability, T/C","second compound 1 µM, first compound 1 µM",64.6%
same,"viability, T/C","second compound 1 µM, first compound 3.16 µM",69.9%
same,"viability, T/C","second compound 1 µM, first compound 10 µM",54.8%
CCN1CCN(Cc2ccc(Nc3ncc(F)c(-c4cc(F)c5nc(C)n(C(C)C)c5c4)n3)nc2)CC1,"viability, T/C",compound 0.01 µM,97% [middle of 13 runs]
same,"viability, T/C",compound 0.0316 µM,94% [middle of 13 runs]
same,"viability, T/C",compound 0.1 µM,84.7% [middle of 13 runs]
same,"viability, T/C",compound 0.316 µM,74.7% [middle of 13 runs]
same,"viability, T/C",compound 1 µM,65.3% [middle of 13 runs]
same,IC50,"compound alone, run of 06/01/2021",> 1000 nM
